Test results: ChEMBL document CHEMBL3870331, “Design, development of new synthetic methodology, and biological evaluation of substituted quinolines as new anti-tubercular leads” (Bioorg Med Chem Lett, 2016)

Tests used:
[1] = tested on: Mycobacterium tuberculosis; experiment: Antimycobacterial activity against Mycobacterium tuberculosis H37Rv ATCC 27294 measured after 28 days by MABA method; type: functional; details: H37Rv ATCC 27294, 672 h
[2] = Cytotoxicity against HEK293T cells assessed as inhibition of cell viability at 50 ug/ml after 72 hrs by MTT assay relative to control; type: toxicity, cell-based, HEK-293T; details: human, read-out: INH
[3] = Therapeutic index, ratio of compound cytotoxic activity for HEK293T cells to MIC99 for Mycobacterium tuberculosis H37Rv ATCC 27294; type: cell-based, HEK-293T; details: human, read-out: TI

| SMILES | MIC99 [1] | cytotoxicity at 72 h, 50 ug/ml [2] | selectivity ratio [3] |
| --- | --- | --- | --- |
| CCOC(=O)c1c(C)nc2ccc(Cl)cc2c1-c1ccccc1 | 76.7 µM |  |  |
| c1ccc(-c2cc(-c3ccccc3)c3ccccc3n2)cc1 | 11.1 µM | 18.1% |  |
| COC(=O)c1c(C)nc2ccccc2c1-c1ccccc1 | 45.1 µM | 25.6% |  |
| Cc1nc2ccccc2c(-c2ccccc2)c1C(=O)c1ccccc1 | 19.3 µM | 22.1% |  |
| CCOC(=O)c1c(C)nc2ccccc2c1-c1ccccc1 | 0.69 µM | 25.6% | > 250 |
| CCOC(=O)c1c(C)nc2ccccc2c1C | 109 µM |  |  |
| c1ccc(-c2c3c(nc4ccccc24)CCC3)cc1 | 25.5 µM | 30% |  |
| Cc1nc2ccccc2c(-c2ccccc2)c1C(=O)Nc1ccc(F)cc1 | 16.8 µM | 12.5% |  |
| O=C1CC(c2ccccc2)Cc2nc3ccccc3c(-c3ccccc3)c21 (stereo unspecified) | 35.8 µM |  |  |
| Cc1nc2ccccc2c(-c2ccccc2)c1C(=O)NCc1cccc(F)c1 | 33.8 µM |  |  |
| CC(=O)c1c(C)nc2ccccc2c1-c1ccccc1 | 47.8 µM |  |  |
| COc1ccc(NC(=O)c2c(C)nc3ccccc3c2-c2ccccc2)cc1 | 8.48 µM | 35.2% |  |
| Cc1nc2ccccc2c(-c2ccccc2)c1C(=O)Nc1ccccn1 | 73.7 µM |  |  |
| COC(=O)c1c(C)nc2ccc(Cl)cc2c1-c1ccccc1 | 80.2 µM |  |  |
| c1ccc(-c2cc(-c3cccs3)nc3ccccc23)cc1 | 21.8 µM | 25.5% |  |
| Cc1nc2ccccc2c(-c2ccccc2)c1C(=O)OC(C)(C)C | 1.22 µM | 13.6% |  |
| CC(=O)c1c(C)nc2ccc(Cl)cc2c1-c1ccccc1 | 10.6 µM | 19.9% |  |
| Cc1nc2ccccc2c(-c2ccccc2)c1C(=O)Nc1ccc(Cl)cc1 | 17.5 µM | 16.3% |  |
| Cc1nc2ccccc2c(-c2ccccc2)c1C(=O)Nc1ccccc1Br | 15 µM | 15.6% |  |
| Cc1nc2ccccc2c(-c2ccccc2)c1C(=O)Nc1ccccc1I | 3.36 µM | 17.9% |  |
| CC1(C)CC(=O)c2c(nc3ccccc3c2-c2ccccc2)C1 | 20.7 µM | 22% |  |
| COc1ccccc1CNC(=O)c1c(C)nc2ccccc2c1-c1ccccc1 | > 65.4 µM |  |  |
| O=C1CCCc2nc3ccccc3c(-c3ccccc3)c21 | 45.7 µM |  |  |

| SMILES | MIC99 [1] | cytotoxicity at 72 h, 50 ug/ml [2] | selectivity ratio [3] |
| --- | --- | --- | --- |
| c1ccc(-c2c3c(nc4ccccc24)CCCCC3)cc1 | 45.7 µM |  |  |
| c1ccc(-c2cc(-c3ccco3)nc3ccccc23)cc1 | 5.75 µM | 34% |  |
| Cc1nc2ccccc2c(-c2ccccc2)c1C(=O)Nc1cccnc1Cl | 16.7 µM | 11.3% |  |
| Cc1nc2ccccc2c(-c2ccccc2)c1C(=O)Nc1ccc(Br)cc1 | 30.9 µM |  |  |
| Cc1nc2ccccc2c(-c2ccccc2)c1C(=O)NCc1ccccc1 | 70.9 µM |  |  |
| Cc1nc2ccccc2c(-c2ccccc2)c1C(=O)NCc1ccccc1Cl | 4.03 µM | 13.6% |  |
| Cc1nc2ccccc2c(-c2ccccc2)c1C(=O)Nc1ccccc1F | 35.1 µM |  |  |
| Cc1nc2ccccc2c(-c2ccccc2)c1C(=O)NCc1cccc(Cl)c1 | 64.6 µM |  |  |
| CC1CC(=O)c2c(nc3ccccc3c2-c2ccccc2)C1 (stereo unspecified) | 21.8 µM | 28% |  |
| Cc1nc2ccccc2c(-c2ccccc2)c1C(=O)NCc1ccc(C(C)(C)C)cc1 | 3.82 µM | 35.6% |  |
| c1ccc(-c2c3c(nc4ccccc24)CCCCCC3)cc1 | 10.9 µM | 31.1% |  |
| c1ccc(-c2c3c(nc4ccccc24)CCCC3)cc1 | 48.2 µM |  |  |
| Cc1nc2ccccc2c(-c2ccccc2)c1C(=O)Nc1ccccc1OC(F)(F)F | 29.6 µM |  |  |
| Cc1nc2ccccc2c(-c2ccccc2)c1C(=O)Nc1ccccc1Cl | 33.5 µM |  |  |
| Cc1nc2ccc(Cl)cc2c(-c2ccccc2)c1C(=O)c1ccccc1 | 8.73 µM | 26.1% |  |
| COc1ccccc1NC(=O)c1c(C)nc2ccccc2c1-c1ccccc1 | 67.9 µM |  |  |
| Cc1nc2ccccc2c(-c2ccccc2)c1C(=O)Nc1ccncc1 | 18.4 µM | 12.6% |  |
| Cc1ccccc1CNC(=O)c1c(C)nc2ccccc2c1-c1ccccc1 | 8.53 µM | 20.6% |  |
| Cc1nc2ccccc2c(-c2ccccc2)c1C(=O)Nc1ccccc1 | 9.23 µM | 25.6% |  |
| CC[C@@H](CO)NCCN[C@@H](CC)CO [ETHAMBUTOL] | 1.56 µg/mL |  |  |
| NNC(=O)c1ccncc1 [ISONIAZID] | 0.098 µg/mL |  |  |
| NC(=O)c1cnccn1 [PYRAZINAMIDE] | 6.25 µg/mL |  |  |
| CO[C@H]1/C=C/O[C@@]2(C)Oc3c(C)c(O)c4c(O)c(c(/C=N/N5CCN(C)CC5)c(O)c4c3C2=O)NC(=O)/C(C)=C\C=C\[C@H](C)[C@H](O)[C@@H](C)[C@@H](O)[C@@H](C)[C@H](OC(C)=O)[C@@H]1C [RIFAMPIN] | 0.197 µg/mL |  |  |
